Data on 1 compound can be found in ChEMBL document CHEMBL2321833, “Design and optimization of selective protein kinase C θ (PKCθ) inhibitors for the treatment of autoimmune diseases” (J Med Chem, 2013).

As usually defined, the Ki is the equilibrium dissociation constant of an inhibitor or competing ligand from its target. Broadly, the bioavailability is the share of a dose that reaches the circulation, judged against a reference dose that is usually intravenous. The low end stands for little systemic uptake, the high end for much systemic uptake.

Data set [1] has as its target T1, Protein kinase C zeta type (Homo sapiens, UniProt Q05513).
T1 sequence (Q05513 whole entry): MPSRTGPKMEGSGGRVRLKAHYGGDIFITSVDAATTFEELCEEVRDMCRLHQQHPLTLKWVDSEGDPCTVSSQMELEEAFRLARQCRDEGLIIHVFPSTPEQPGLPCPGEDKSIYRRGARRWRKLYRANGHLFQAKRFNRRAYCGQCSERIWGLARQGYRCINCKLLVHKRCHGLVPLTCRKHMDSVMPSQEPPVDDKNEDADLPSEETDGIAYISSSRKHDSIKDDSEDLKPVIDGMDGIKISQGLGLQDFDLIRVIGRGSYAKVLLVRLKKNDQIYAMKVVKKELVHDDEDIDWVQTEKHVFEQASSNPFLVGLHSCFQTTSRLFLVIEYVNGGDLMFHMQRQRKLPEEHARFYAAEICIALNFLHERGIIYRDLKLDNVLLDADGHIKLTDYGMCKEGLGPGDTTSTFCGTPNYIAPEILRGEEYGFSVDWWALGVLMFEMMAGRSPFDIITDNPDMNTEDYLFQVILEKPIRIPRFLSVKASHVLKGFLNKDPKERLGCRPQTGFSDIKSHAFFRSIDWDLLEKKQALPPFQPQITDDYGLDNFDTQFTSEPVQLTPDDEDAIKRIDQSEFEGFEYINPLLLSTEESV
The data set is described as follows: Inhibition of PKC zeta (unknown origin).

The target in data set [2] is T2, Tyrosine-protein kinase ZAP-70 (Homo sapiens, UniProt P43403).
T2 sequence (P43403 whole entry): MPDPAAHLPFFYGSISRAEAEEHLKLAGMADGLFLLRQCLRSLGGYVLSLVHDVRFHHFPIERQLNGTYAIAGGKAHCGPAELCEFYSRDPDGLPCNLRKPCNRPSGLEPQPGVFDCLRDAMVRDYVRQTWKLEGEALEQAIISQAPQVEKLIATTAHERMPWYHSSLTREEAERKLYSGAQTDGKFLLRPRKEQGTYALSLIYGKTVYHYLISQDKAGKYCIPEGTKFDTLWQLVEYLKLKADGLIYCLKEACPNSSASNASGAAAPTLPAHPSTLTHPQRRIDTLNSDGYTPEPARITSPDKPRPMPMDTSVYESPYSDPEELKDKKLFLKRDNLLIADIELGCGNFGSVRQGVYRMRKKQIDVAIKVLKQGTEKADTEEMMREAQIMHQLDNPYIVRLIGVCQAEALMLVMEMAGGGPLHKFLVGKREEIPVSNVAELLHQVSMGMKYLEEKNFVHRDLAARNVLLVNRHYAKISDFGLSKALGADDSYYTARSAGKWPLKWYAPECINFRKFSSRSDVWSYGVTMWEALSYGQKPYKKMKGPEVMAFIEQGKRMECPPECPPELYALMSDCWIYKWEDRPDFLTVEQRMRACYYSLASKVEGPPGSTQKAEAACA
Put plainly: Inhibition of Zap70 (unknown origin).

The target of data set [3] is T3, Tyrosine-protein kinase ITK/TSK (Homo sapiens, UniProt Q08881).
T3 sequence (Q08881 whole entry): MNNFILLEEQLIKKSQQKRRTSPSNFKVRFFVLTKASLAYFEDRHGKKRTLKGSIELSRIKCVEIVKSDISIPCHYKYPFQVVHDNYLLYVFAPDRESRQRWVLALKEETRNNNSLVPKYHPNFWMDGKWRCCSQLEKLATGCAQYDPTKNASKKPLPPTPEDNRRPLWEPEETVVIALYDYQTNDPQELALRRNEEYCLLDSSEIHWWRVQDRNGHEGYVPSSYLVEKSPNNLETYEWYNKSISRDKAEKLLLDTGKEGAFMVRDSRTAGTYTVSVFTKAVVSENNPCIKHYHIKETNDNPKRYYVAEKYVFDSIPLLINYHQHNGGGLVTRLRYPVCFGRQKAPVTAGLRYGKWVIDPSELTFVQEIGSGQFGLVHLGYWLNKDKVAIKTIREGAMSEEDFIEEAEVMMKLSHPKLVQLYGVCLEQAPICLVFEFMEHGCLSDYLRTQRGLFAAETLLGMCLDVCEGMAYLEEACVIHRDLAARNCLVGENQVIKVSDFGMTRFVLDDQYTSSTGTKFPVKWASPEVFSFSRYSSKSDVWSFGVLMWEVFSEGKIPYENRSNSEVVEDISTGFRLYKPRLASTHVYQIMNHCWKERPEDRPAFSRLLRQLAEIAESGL
The data set is described as follows: Inhibition of Itk (unknown origin).

In data set [4] the target is Protein kinase C beta type (Homo sapiens, UniProt P05771). The data set is described as follows: Inhibition of PKC beta2 (unknown origin).
The nature of data set [5]: Oral bioavailability in rat at 10 mg/kg. Particulars: in vivo. The data set is classed as ADME, organism-based.
The target in data set [6] is Protein kinase C delta type (Homo sapiens, UniProt Q05655). The data set is described as follows: Inhibition of PKC delta (unknown origin) using ERMRPRKRQGSVRRRV as substrate after 15 mins by spectrophotometry in presence of ATP.
Chain of Protein kinase C delta type (Q05655 whole entry): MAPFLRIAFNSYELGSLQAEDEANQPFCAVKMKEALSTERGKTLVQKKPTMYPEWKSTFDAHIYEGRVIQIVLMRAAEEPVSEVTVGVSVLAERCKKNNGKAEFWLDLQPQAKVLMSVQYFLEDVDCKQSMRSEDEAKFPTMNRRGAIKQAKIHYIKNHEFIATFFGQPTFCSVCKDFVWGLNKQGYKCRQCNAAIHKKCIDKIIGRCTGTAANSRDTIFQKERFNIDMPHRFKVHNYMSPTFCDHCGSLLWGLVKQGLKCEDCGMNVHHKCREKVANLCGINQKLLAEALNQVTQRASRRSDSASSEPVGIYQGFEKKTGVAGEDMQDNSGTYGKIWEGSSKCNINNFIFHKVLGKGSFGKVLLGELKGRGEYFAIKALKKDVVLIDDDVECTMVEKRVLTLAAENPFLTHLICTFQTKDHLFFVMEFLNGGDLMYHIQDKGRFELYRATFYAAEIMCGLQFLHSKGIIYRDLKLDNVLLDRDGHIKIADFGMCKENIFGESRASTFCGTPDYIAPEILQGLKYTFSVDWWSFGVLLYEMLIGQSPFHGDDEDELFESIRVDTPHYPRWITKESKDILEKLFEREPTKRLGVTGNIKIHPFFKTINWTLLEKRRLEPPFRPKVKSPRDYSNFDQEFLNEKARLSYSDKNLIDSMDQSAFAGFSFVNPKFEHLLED

Chain of Protein kinase C beta type (P05771 whole entry): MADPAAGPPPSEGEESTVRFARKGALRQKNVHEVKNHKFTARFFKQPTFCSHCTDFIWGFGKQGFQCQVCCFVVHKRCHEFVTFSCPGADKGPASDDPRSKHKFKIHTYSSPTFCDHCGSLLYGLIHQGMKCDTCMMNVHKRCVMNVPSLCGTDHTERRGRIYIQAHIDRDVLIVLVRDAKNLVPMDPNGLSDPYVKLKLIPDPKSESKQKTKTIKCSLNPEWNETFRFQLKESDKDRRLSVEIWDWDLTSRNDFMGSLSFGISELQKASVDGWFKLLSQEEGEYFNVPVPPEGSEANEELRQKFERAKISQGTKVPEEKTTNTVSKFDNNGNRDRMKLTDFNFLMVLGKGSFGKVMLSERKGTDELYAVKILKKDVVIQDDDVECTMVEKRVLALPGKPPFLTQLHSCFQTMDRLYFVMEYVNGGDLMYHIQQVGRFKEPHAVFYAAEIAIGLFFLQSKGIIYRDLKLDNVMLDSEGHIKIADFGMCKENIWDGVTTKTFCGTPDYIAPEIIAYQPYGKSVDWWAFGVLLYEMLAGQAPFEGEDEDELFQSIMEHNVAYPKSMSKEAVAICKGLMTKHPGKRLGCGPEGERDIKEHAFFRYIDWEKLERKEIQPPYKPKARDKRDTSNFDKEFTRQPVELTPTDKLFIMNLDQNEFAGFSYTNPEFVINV

Turning to `CC(C)[C@@](C)(O)[C@@H]1CN(c2nc(-c3n[nH]c4ncccc34)c(F)cc2Cl)CCN1`, the Ki in data set [1] is over 5 µM; in data set [2], over 1 µM; in data set [3], over 1 µM; in data set [4] it was 0.393 µM; in data set [6] it was 0.016 µM. The compound also gave a bioavailability in data set [5] of 65%.
